The test system of one assay is HL-60. Put plainly: Antiproliferative activity against human HL60 cells measured after 48 hrs by WST1 assay. It counts as functional, cell-based. The conditions noted are these: HL-60, 48 h. Background: Tetrazolium dyes change colour on reduction, which living cells bring about.
The subject of another assay is HCT-116. Put plainly: Antiproliferative activity against human HCT116 cells measured after 48 hrs by MTT assay. The class given is functional, cell-based. Conditions: HCT-116, 48 h.

Where only a bound is given, the exact number is not on record here.

For 15 compounds, IC50 results are on record in ChEMBL document CHEMBL4138075, “Concise synthesis and antiproliferative activity evaluation of ellipticine quinone and its analogs” (Eur J Med Chem, 2017).

As to `O=C1c2ccncc2C(=O)c2c1[nH]c1ccccc21`, the IC50 – broadly, the concentration needed to halve the response being measured – in the assay on HL-60 was found to be 3.29 µM; in the assay on HCT-116, 877 nM.
Regarding `O=C1c2ccncc2C(=O)c2c1[nH]c1cc(C(F)(F)F)ccc21`, the IC50 was over 10 µM in the assay with HL-60 and 4620 nM in the assay on HCT-116.
`O=C1c2ccncc2C(=O)c2c1[nH]c1ccc([N+](=O)[O-])cc21`: the IC50 was found to be 1.35 µM in the assay on HL-60 and 187 nM with HCT-116.
The corresponding values for `O=C1c2ccncc2C(=O)c2c1[nH]c1ccc(Cl)cc21` are 3.88 µM and 1380 nM.
On to `COc1ccc2c3c([nH]c2c1)C(=O)c1ccncc1C3=O`, for which the results for the IC50 in the assay on HL-60 and with HCT-116 were 9.01 µM and 3140 nM, respectively.
`O=C1c2ccncc2C(=O)c2c1[nH]c1cc(Cl)ccc21`: the IC50 in the assay on HL-60 was over 10 µM; with HCT-116, 4070 nM.
With `O=C1c2ccncc2C(=O)c2c1[nH]c1ccc(C(F)(F)F)cc21`, the figures for the IC50 in the assay on HL-60 and with HCT-116 were 5.08 µM and 1640 nM, respectively.
With `Cc1ccc2[nH]c3c(c2c1)C(=O)c1cnccc1C3=O`, the half-maximal inhibitory concentration (IC50) turned out to be 4.27 µM with HL-60 and 849 nM in the assay on HCT-116.
For `O=C1c2ccncc2C(=O)c2c1[nH]c1cc([N+](=O)[O-])ccc21`, the IC50 was 4.43 µM with HL-60 and 1250 nM with HCT-116.
Consider `Cc1ccc2c3c([nH]c2c1)C(=O)c1ccncc1C3=O`, for which the values for the IC50 with HL-60 and in the assay with HCT-116 were over 10 µM and 5800 nM, respectively.
With `COc1cc2[nH]c3c(c2cc1OC)C(=O)c1cnccc1C3=O`, the IC50 was 7.49 µM in the assay on HL-60 and 3720 nM in the assay on HCT-116.
As to `O=C1c2ccncc2C(=O)c2c1[nH]c1ccc(F)cc21`, the IC50 in the assay with HL-60 is 4.5 µM; in the assay with HCT-116 it was 1130 nM.
Turning to `O=C1c2ccncc2C(=O)c2c1[nH]c1cc(F)ccc21`, the concentration for half-maximal inhibition (IC50) came out at 4.5 µM in the assay on HL-60 and 1600 nM with HCT-116.
As for `COc1ccc2[nH]c3c(c2c1)C(=O)c1cnccc1C3=O`, the figures for the IC50 in the assay on HL-60 and with HCT-116 were over 10 µM and 5430 nM, respectively.
The corresponding values for `CC[C@@]1(O)C(=O)OCc2c1cc1n(c2=O)Cc2cc3ccccc3nc2-1` [CAMPTOTHECIN] are 0.019 µM and 159 nM.
